Experiments:
Phakopsora pachyrhizi = Phakopsora pachyrhizi / soybean / leaf disc preventative (Asian soybean rust); type: in vivo; conditions: foliar, 200 ppm in the applied formulation, soybean leaf disks, preventative (inoculated 1 day after application), compared to untreated control, read-out: disease control
Experimental: Leaf disks or leaf segments of various plant species are cut from plants grown in a greenhouse. The cut leaf disks or segments are placed in multiwell plates (24-well format) onto water agar. The leaf disks are sprayed with a test solution before (preventative) or after (curative) inoculation. Compounds to be tested are prepared as DMSO solutions (max. 10 mg/ml) which are diluted to the appropriate concentration with 0.025% Tween20 just before spraying. The inoculated leaf disks or segments are incubated under defined conditions (temperature, relative humidity, light, etc.) according to the respective test system. A single evaluation of disease level is carried out 3 to 14 days after inoculation, depending on the pathosystem. Percent disease control relative to the untreated check leaf disks or segments is then calculated. Soybean leaf disks are placed on water agar in multiwell plates (24-well format) and sprayed with the formulated test compound diluted in water. One day after application leaf discs are inoculated by spraying a spore suspension on the lower leaf surface. After an incubation period in a climate cabinet of 24-36 hours in darkness at 20° C. and 75% rh leaf disc are kept at 20° C. with 12 h light/day and 75% rh. The activity of a compound is assessed as percent disease control compared to untreated when an appropriate level of disease damage appears in untreated check leaf disks (12 to 14 days after application).

[1] = test system: Puccinia recondita f. Sp. Tritici; experiment: Puccinia recondita f. sp. tritici / wheat / leaf disc preventative (brown rust); type: in vivo; conditions: foliar, 200 ppm in the applied formulation, wheat leaf segments cv. Kanzler, preventative (inoculated 1 day after application), compared to untreated control, read-out: disease control
Experimental: Leaf disks or leaf segments of various plant species are cut from plants grown in a greenhouse. The cut leaf disks or segments are placed in multiwell plates (24-well format) onto water agar. The leaf disks are sprayed with a test solution before (preventative) or after (curative) inoculation. Compounds to be tested are prepared as DMSO solutions (max. 10 mg/ml) which are diluted to the appropriate concentration with 0.025% Tween20 just before spraying. The inoculated leaf disks or segments are incubated under defined conditions (temperature, relative humidity, light, etc.) according to the respective test system. A single evaluation of disease level is carried out 3 to 14 days after inoculation, depending on the pathosystem. Percent disease control relative to the untreated check leaf disks or segments is then calculated. Wheat leaf segments cv. Kanzler were placed on agar in multiwell plates (24-well format) and sprayed with the formulated test compound diluted in water. The leaf disks were inoculated with a spore suspension of the fungus 1 day after application. The inoculated leaf segments were incubated at 19° C. and 75% relative humidity (rh) under a light regime of 12 hours light/12 hours darkness in a climate cabinet and the activity of a compound was assessed as percent disease control compared to untreated when an appropriate level of disease damage appears in untreated check leaf segments (7 to 9 days after application).

[2] = test system: Puccinia recondita f. Sp. Tritici; experiment: Puccinia recondita f. sp. tritici / wheat / leaf disc curative (brown rust); type: in vivo; conditions: foliar, 24 h, 200 ppm in the applied formulation, wheat leaf segments cv. Kanzler, curative (applied 1 day after inoculation), compared to untreated control, read-out: disease control
Experimental: Leaf disks or leaf segments of various plant species are cut from plants grown in a greenhouse. The cut leaf disks or segments are placed in multiwell plates (24-well format) onto water agar. The leaf disks are sprayed with a test solution before (preventative) or after (curative) inoculation. Compounds to be tested are prepared as DMSO solutions (max. 10 mg/ml) which are diluted to the appropriate concentration with 0.025% Tween20 just before spraying. The inoculated leaf disks or segments are incubated under defined conditions (temperature, relative humidity, light, etc.) according to the respective test system. A single evaluation of disease level is carried out 3 to 14 days after inoculation, depending on the pathosystem. Percent disease control relative to the untreated check leaf disks or segments is then calculated. Wheat leaf segments cv. Kanzler are placed on agar in multiwell plates (24-well format). The leaf segments are then inoculated with a spore suspension of the fungus. Plates were stored in darkness at 19° C. and 75% relative humidity. The formulated test compound diluted in water was applied 1 day after inoculation. The leaf segments were incubated at 19° C. and 75% relative humidity under a light regime of 12 hours light/12 hours darkness in a climate cabinet and the activity of a compound was assessed as percent disease control compared to untreated when an appropriate level of disease damage appears in untreated check leaf segments (6 to 8 days after application).

[3] = test system: Glomerella laqenarium (Colletotrichum laqenarium); experiment: Glomerella lagenarium liquid culture / cucumber / preventative (anthracnose); type: cell-based; conditions: 20 ppm in the applied formulation, liquid culture in PDB, growth inhibition measured photometrically 3 to 4 days after application, compared to untreated control, read-out: disease control
Experimental: Mycelia fragments or conidia suspensions of a fungus prepared either freshly from liquid cultures of the fungus or from cryogenic storage, are directly mixed into nutrient broth. DMSO solutions of the test compound (max. 10 mg/ml) are diluted with 0.025% Tween20 by a factor of 50 and 10 μl of this solution is pipetted into a microtiter plate (96-well format). The nutrient broth containing the fungal spores/mycelia fragments is then added to give an end concentration of the tested compound. The test plates are incubated in the dark at 24° C. and 96% relative humidity. The inhibition of fungal growth is determined photometrically after 2 to 7 days, depending on the pathosystem, and percent antifungal activity relative to the untreated check is calculated. Conidia of the fungus from cryogenic storage are directly mixed into nutrient broth (PDB—potato dextrose broth). After placing a (DMSO) solution of test compound into a microtiter plate (96-well format), the nutrient broth containing the fungal spores is added. The test plates are incubated at 24° C. and the inhibition of growth is measured photometrically 3 to 4 days after application.

melting point: 51 to 53 °C
SMILES: C/C(=N/OCc1ccc(-c2noc(C(F)(F)F)n2)cc1)n1ccnc1 [Compound 4.2, (Z)-1-imidazol-1-yl-N-[[4-[5-(trifluoromethyl)-1,2,4-oxadiazol-3-yl]phenyl]methoxy]ethanimine]
pest or weed control at 200 ppm (Phakopsora pachyrhizi): ≥ 80% | pest or weed control at 200 ppm [1]: ≥ 80% | pest or weed control at 200 ppm [2]: ≥ 80% | inhibition of growth at 20 ppm [3]: ≥ 80%

Source: patent US20190345150A1, “MICROBIOCIDAL OXADIAZOLE DERIVATIVES” (SYNGENTA PARTICIPATIONS AG, priority 2016, published 2019)
